# Measurements published in PubChem BioAssay (NCI).
#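 Dose response: 5 concentrations. Exposure: 48 h. Format: 96-well plates. Endpoint: linear interpolation; highest concentration if not reached. Here, GI50 denotes the concentration required for 50% inhibition of growth. TGI marks complete inhibition of growth.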
# Assays:
# Experiment in all cases: inhibition of tumour cell growth, NCI panel, 48 h
# [1] = system: 786-0 renal
# [2] = system: A498 renal
# [3] = system: A549 NSCLC
# [4] = system: ACHN renal
# [5] = system: BT-549 breast
# [6] = system: CAKI-1 renal
# [7] = system: CCRF-CEM leukemia
# [8] = system: COLO 205 colon
# [9] = system: DU-145 prostate
# [10] = system: HCC-2998 colon
# [11] = system: HCT-116 colon
# [12] = system: HCT-15 colon
# [13] = system: HL-60(TB) leukemia
# [14] = system: HOP-62 NSCLC
# [15] = system: HOP-92 NSCLC
# [16] = system: HS 578T breast
# [17] = system: HT29 colon
# [18] = system: IGROV1 ovarian
# [19] = system: K-562 leukemia
# [20] = system: KM12 colon
# [21] = system: LOX IMVI melanoma
# [22] = system: M14 melanoma
# [23] = system: MALME-3M melanoma
# [24] = system: MCF7 breast
# [25] = system: MDA-MB-231 breast
# [26] = system: MOLT-4 leukemia
# [27] = system: NCI-H226 lung
# [28] = system: NCI-H460 lung
# [29] = system: NCI-H522 lung
# [30] = system: NCI/ADR-RES ovarian
# [31] = system: OVCAR-4 ovarian
# [32] = system: OVCAR-5 ovarian
# [33] = system: OVCAR-8 ovarian
# [34] = system: PC-3 prostate
# [35] = system: RPMI-8226 leukemia
# [36] = system: RXF 393 renal
# [37] = system: SF-268 CNS
# [38] = system: SF-295 CNS
# [39] = system: SF-539 CNS
# [40] = system: SK-MEL-5 melanoma
# [41] = system: SK-OV-3 ovarian
# [42] = system: SN12C renal
# [43] = system: SNB-19 CNS
# [44] = system: SNB-75 CNS
# [45] = system: SR leukemia
# [46] = system: SW-620 colon
# [47] = system: T-47D breast
# [48] = system: TK-10 renal
# [49] = system: U251 CNS
# [50] = system: UACC-257 melanoma
# [51] = system: UACC-62 melanoma
# [52] = system: UO-31 renal
smiles,measurement,setting,value
CC(=O)Nc1cccc(-n2cnc3cc(-c4ccc(O)cc4)ccc32)c1,GI50,[1],0.78 µM
same,TGI,[1],23.2 µM
same,GI50,[2],0.249 µM
same,TGI,[2],0.982 µM
same,GI50,[3],0.73 µM
same,TGI,[3],80.9 µM
same,GI50,[4],0.894 µM
same,TGI,[4],16.8 µM
same,GI50,[5],0.342 µM
same,TGI,[5],11.2 µM
same,GI50,[6],0.668 µM
same,TGI,[6],14 µM
same,GI50,[7],0.515 µM
same,TGI,[7],68.2 µM
same,GI50,[8],3.86 µM
same,TGI,[8],40.1 µM
same,GI50,[9],1.76 µM
same,TGI,[9],23.6 µM
same,GI50,[10],3.46 µM
same,TGI,[10],49 µM
same,GI50,[11],0.413 µM
same,TGI,[11],27.2 µM
same,GI50,[12],0.333 µM
same,TGI,[12],18.9 µM
same,GI50,[13],0.313 µM
same,TGI,[13],10.6 µM
same,GI50,[14],0.82 µM
same,TGI,[14],22.5 µM
same,GI50,[15],0.94 µM
same,TGI,[15],28.8 µM
same,GI50,[16],0.254 µM
same,TGI,[16],2.46 µM
same,GI50,[17],3.24 µM
same,TGI,[17],19 µM
same,GI50,[18],0.696 µM
same,TGI,[18],29.1 µM
same,GI50,[19],0.169 µM
same,TGI,[19],> 100 µM
same,GI50,[20],5.42 µM
same,TGI,[20],68.2 µM
same,GI50,[21],0.523 µM
same,TGI,[21],16.3 µM
same,GI50,[22],0.289 µM
same,TGI,[22],77 µM
same,GI50,[23],0.583 µM
same,TGI,[23],49.8 µM
same,GI50,[24],0.377 µM
same,TGI,[24],22.6 µM
same,GI50,[25],0.46 µM
same,TGI,[25],> 100 µM
same,GI50,[26],0.428 µM
same,TGI,[26],16.2 µM
same,GI50,[27],0.779 µM
same,TGI,[27],4.26 µM
same,GI50,[28],0.386 µM
same,TGI,[28],14.6 µM
same,GI50,[29],0.176 µM
same,TGI,[29],0.503 µM
same,GI50,[30],0.428 µM
same,TGI,[30],11.5 µM
same,GI50,[31],2.42 µM
same,TGI,[31],43.1 µM
same,GI50,[32],10.6 µM
same,TGI,[32],> 100 µM
same,GI50,[33],0.618 µM
same,TGI,[33],17 µM
same,GI50,[34],1.43 µM
same,TGI,[34],42.1 µM
same,GI50,[35],0.494 µM
same,TGI,[35],9.23 µM
same,GI50,[36],0.834 µM
same,TGI,[36],8.27 µM
same,GI50,[37],0.982 µM
same,TGI,[37],57.8 µM
same,GI50,[38],0.601 µM
same,TGI,[38],11 µM
same,GI50,[39],0.371 µM
same,TGI,[39],5.95 µM
same,GI50,[40],0.316 µM
same,TGI,[40],15.8 µM
same,GI50,[41],1.16 µM
same,TGI,[41],22.1 µM
same,GI50,[42],0.546 µM
same,TGI,[42],41.4 µM
same,GI50,[43],0.872 µM
same,TGI,[43],> 100 µM
same,GI50,[44],0.232 µM
same,TGI,[44],0.929 µM
same,GI50,[45],0.182 µM
same,TGI,[45],> 100 µM
same,GI50,[46],0.368 µM
same,TGI,[46],36.5 µM
same,GI50,[47],0.534 µM
same,TGI,[47],19.6 µM
same,GI50,[48],5.95 µM
same,TGI,[48],47.4 µM
same,GI50,[49],0.365 µM
same,TGI,[49],30.2 µM
same,GI50,[50],0.716 µM
same,TGI,[50],45.5 µM
same,GI50,[51],0.35 µM
same,TGI,[51],17.6 µM
same,GI50,[52],0.716 µM
same,TGI,[52],15 µM
